Source: patent US20240217983A1, “GPR119 AGONISTS” (Kallyope, Inc., priority 2021, published 2024)

Biological target: T1, human GPR119 (hGPR119) (Homo sapiens, UniProt Q8TDV5)
T1 construct: expressed in transfected cells
T1 sequence (Q8TDV5 1-335): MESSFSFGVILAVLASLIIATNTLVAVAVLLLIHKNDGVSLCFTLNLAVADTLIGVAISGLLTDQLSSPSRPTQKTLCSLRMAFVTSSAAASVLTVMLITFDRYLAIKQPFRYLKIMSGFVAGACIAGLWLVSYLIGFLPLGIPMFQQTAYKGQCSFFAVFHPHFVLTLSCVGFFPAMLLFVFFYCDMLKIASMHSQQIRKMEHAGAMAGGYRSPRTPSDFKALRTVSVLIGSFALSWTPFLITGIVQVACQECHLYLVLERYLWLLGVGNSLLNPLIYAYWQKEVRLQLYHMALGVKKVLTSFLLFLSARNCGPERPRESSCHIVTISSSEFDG
Experiment: cAMP accumulation assay (Cisbio cAMP Gs dynamic HTRF kit) in CHO-K1 cells stably expressing human GPR119
Type: cell-based
Conditions: 4-parameter fit; for Emax: 1 h, % activity normalized to Max and Min controls; for EC50: 60 minutes at 37° C.
Outline: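 CHO-K1 cells stably expressing hGPR119, used as assay-ready frozen stocks at ~10,000 cells/well, exposed to compound dose-response in stimulation buffer with Tween 80 for 60 min at 37° C. cAMP read by HTRF (665/620 nm ratio), normalised to Max/Min controls; EC50 and Max activity from 4-parameter fit.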

Compound | Emax [%] | EC50 [nM]
O=C(Cc1ccc(OCCCC2CCN(c3ncc(Cl)cn3)CC2)cc1F)N1CCC2(CC1)CN(C(=O)CCCCS(=O)(=O)O)C2 [Example 22, 5-(7-(2-(4-(3-(1-(5-chloropyrimidin-2-yl)piperidin-4-yl)propoxy)-2-fluorophenyl)acetyl)-2,7-diazaspiro[3.5]nonan-2-yl)-5-oxopentane-1-sulfonic acid] | 100 to 130 | 100 to 1000
O=C(CCCCS(=O)(=O)O)N1CC2CC(C1)N2C(=O)Cc1ccc(OCCCC2CCN(c3ncc(Cl)cn3)CC2)cc1F [Example 16, 5-(6-(2-(4-(3-(1-(5-chloropyrimidin-2-yl)piperidin-4-yl)propoxy)-2-fluorophenyl)acetyl)-3,6-diazabicyclo[3.1.1]heptan-3-yl)-5-oxopentane-1-sulfonic acid] | 100 to 130 | ≤ 100
COCc1cnc(N2CCC(CCCCOc3cc(F)c(CC(=O)N4CCN(C[C@H](O)[C@@H](O)[C@H](O)[C@H](O)CO)CC4)c(F)c3)CC2)nc1 [Example 101, 2-(2,6-difluoro-4-(4-(1-(5-(methoxymethyl)pyrimidin-2-yl)piperidin-4-yl)butoxy)phenyl)-1-(4-((2S,3R,4R,5R)-2,3,4,5,6-pentahydroxyhexyl)piperazin-1-yl)ethan-1-one] | 100 to 130 | ≤ 100
CCOc1cnc(N2CCC(CCCOc3cc(F)c(CC(=O)N4CCN(C[C@H](O)[C@@H](O)[C@H](O)[C@H](O)CO)CC4)c(F)c3)CC2)nc1 [Example 97, 2-(4-(3-(1-(5-ethoxypyrimidin-2-yl)piperidin-4-yl)propoxy)-2,6-difluorophenyl)-1-(4-((2S,3R,4R,5R)-2,3,4,5,6-pentahydroxyhexyl)piperazin-1-yl)ethan-1-one] | 100 to 130 | ≤ 100
O=C(Cc1ccc(OCCCC2CCN(c3ncc(Cl)cn3)CC2)cc1F)N1CC2(CCN2C(=O)CCCCS(=O)(=O)O)C1 [Example 5, 5-(6-(2-(4-(3-(1-(5-chloropyrimidin-2-yl)piperidin-4-yl)propoxy)-2-fluorophenyl)acetyl)-1,6-diazaspiro[3.3]heptan-1-yl)-5-oxopentane-1-sulfonic acid] | 100 to 130 | ≤ 100
O=C(Cc1ccc(OCCCCC2CC3(CCN(c4ncc(Cl)cn4)CC3)C2)cc1F)N1CCN(C[C@H](O)[C@@H](O)[C@H](O)[C@H](O)CO)CC1 [Example 112, 2-(4-(4-(7-(5-chloropyrimidin-2-yl)-7-azaspiro[3.5]nonan-2-yl)butoxy)-2-fluorophenyl)-1-(4-((2S,3R,4R,5R)-2,3,4,5,6-pentahydroxyhexyl)piperazin-1-yl)ethan-1-one] | 100 to 130 | 100 to 1000
O=C(CCCCS(=O)(=O)O)N1C[C@H]2CN(C(=O)Cc3ccc(OCCCC4CCN(c5ncc(Cl)cn5)CC4)cc3F)[C@H]2C1 [Example 8, 5-((1S,5R)-6-(2-(4-(3-(1-(5-chloropyrimidin-2-yl)piperidin-4-yl)propoxy)-2-fluorophenyl)acetyl)-3,6-diazabicyclo[3.2.0]heptan-3-yl)-5-oxopentane-1-sulfonic acid] | 100 to 130 | ≤ 100
O=C(CCCCS(=O)(=O)O)N1CC2CCC1CN2C(=O)Cc1ccc(OCCCC2CCN(c3ncc(Cl)cn3)CC2)cc1F (stereo not drawn) [Example 14, 5-(5-(2-(4-(3-(1-(5-chloropyrimidin-2-yl)piperidin-4-yl)propoxy)-2-fluorophenyl)acetyl)-2,5-diazabicyclo[2.2.2]octan-2-yl)-5-oxopentane-1-sulfonic acid] | 100 to 130 | ≤ 100
O=C(CCCCS(=O)(=O)O)N1CC2(C1)CN(C(=O)Cc1ccc(OCCCC3CCN(c4ncc(Cl)cn4)CC3)cc1F)C2 [Example 3, 5-(6-(2-(4-(3-(1-(5-chloropyrimidin-2-yl)piperidin-4-yl)propoxy)-2-fluorophenyl)acetyl)-2,6-diazaspiro[3.3]heptan-2-yl)-5-oxopentane-1-sulfonic acid] | 100 to 130 | ≤ 100

More lines, now with the values ahead:

Emax [%] | EC50 [nM] | Compound
100 to 130 | ≤ 100 | O=C(Cc1ccc(OCCCC2CCN(c3ncc(Cl)cn3)CC2)cc1F)N1CCC2(CC2NC[C@H](O)[C@H](O)[C@H](O)CO)C1 (stereo partly drawn) [Example 83, 2-(4-(3-(1-(5-chloropyrimidin-2-yl)piperidin-4-yl)propoxy)-2-fluorophenyl)-1-(1-(((2S,3S,4R)-2,3,4,5-tetrahydroxypentyl)amino)-5-azaspiro[2.4]heptan-5-yl)ethan-1-one]
100 to 130 | ≤ 100 | O=C(Cc1ccc(OCCCC2CCN(c3ncc(Cl)cn3)CC2)cc1F)N1CCCN(C[C@H](O)[C@@H](O)[C@H](O)[C@H](O)CO)CC1 [Example 51, 2-(4-(3-(1-(5-chloropyrimidin-2-yl)piperidin-4-yl)propoxy)-2-fluorophenyl)-1-(4-((2S,3R,4R,5R)-2,3,4,5,6-pentahydroxyhexyl)-1,4-diazepan-1-yl)ethan-1-one]
≥ 130 | ≤ 100 | O=C(Cc1ccc(OCCCC2CCN(c3ncc(Cl)cn3)CC2)cc1F)N1CC2(CCCN2C[C@H](O)[C@@H](O)[C@H](O)[C@H](O)CO)C1 [Example 61, 2-(4-(3-(1-(5-chloropyrimidin-2-yl)piperidin-4-yl)propoxy)-2-fluorophenyl)-1-(5-((2S,3R,4R,5R)-2,3,4,5,6-pentahydroxyhexyl)-2,5-diazaspiro[3.4]octan-2-yl)ethan-1-one]
100 to 130 | ≤ 100 | O=C(CCCCS(=O)(=O)O)N1CCC2(CCN(C(=O)Cc3ccc(OCCCC4CCN(c5ncc(Cl)cn5)CC4)cc3F)C2)C1 (stereo not drawn) [Example 1, 5-(7-(2-(4-(3-(1-(5-chloropyrimidin-2-yl)piperidin-4-yl)propoxy)-2-fluorophenyl)acetyl)-2,7-diazaspiro[4.4]nonan-2-yl)-5-oxopentane-1-sulfonic acid]
100 to 130 | ≤ 100 | O=C(Cc1ccc(OCCCC2CCN(c3ncc(Cl)cn3)CC2)cc1F)N1C[C@@H]2CN(C[C@H](O)[C@@H](O)[C@H](O)[C@H](O)CO)C[C@@H]21 [Example 39, 2-(4-(3-(1-(5-chloropyrimidin-2-yl)piperidin-4-yl)propoxy)-2-fluorophenyl)-1-((1S,5R)-3-((2S,3R,4R,5R)-2,3,4,5,6-pentahydroxyhexyl)-3,6-diazabicyclo[3.2.0]heptan-6-yl)ethan-1-one]
≥ 130 | ≤ 100 | O=C(Cc1ccc(OCCCC2CCN(c3ncc(Cl)cn3)CC2)cc1F)N1CC[C@]2(CCC2NCC(O)C(O)C(O)CO)C1 (stereo in doubt) [Example 84, 2-(4-(3-(1-(5-chloropyrimidin-2-yl)piperidin-4-yl)propoxy)-2-fluorophenyl)-1-(1-(((2S,3S,4R)-2,3,4,5-tetrahydroxypentyl)amino)-6-azaspiro[3.4]octan-6-yl)ethan-1-one]
100 to 130 | 100 to 1000 | O=C(Cc1ncc(OCCCC2CCN(c3ncc(Cl)cn3)CC2)cc1F)N1CCN(C[C@H](O)[C@@H](O)[C@H](O)[C@H](O)CO)CC1 [Example 89, 2-(5-(3-(1-(5-chloropyrimidin-2-yl)piperidin-4-yl)propoxy)-3-fluoropyridin-2-yl)-1-(4-((2S,3R,4R,5R)-2,3,4,5,6-pentahydroxyhexyl)piperazin-1-yl)ethan-1-one]
≥ 130 | ≤ 100 | O=C(Cc1ccc(OCCCC2CCN(c3ncc(Cl)cn3)CC2)cc1F)N1CCC2(CCCN2C[C@H](O)[C@@H](O)[C@H](O)[C@H](O)CO)C1 (stereo in doubt) [Example 75, 2-(4-(3-(1-(5-chloropyrimidin-2-yl)piperidin-4-yl)propoxy)-2-fluorophenyl)-1-(1-((2S,3R,4R,5R)-2,3,4,5,6-pentahydroxyhexyl)-1,7-diazaspiro[4.4]nonan-7-yl)ethan-1-one]
100 to 130 | 100 to 1000 | O=C(Cc1ccc(OCCCC2CCN(c3ncc(Cl)cn3)CC2)cc1F)N1C[C@H]2CN(C[C@H](O)[C@@H](O)[C@H](O)[C@H](O)CO)[C@H]2C1 [Example 37, 2-(4-(3-(1-(5-chloropyrimidin-2-yl)piperidin-4-yl)propoxy)-2-fluorophenyl)-1-((1R,5R)-6-((2S,3R,4R,5R)-2,3,4,5,6-pentahydroxyhexyl)-3,6-diazabicyclo[3.2.0]heptan-3-yl)ethan-1-one]
100 to 130 | 100 to 1000 | O=C(Cc1ccc(OCCCC2CCN(c3ncc(Cl)cn3)CC2)cc1F)N1CCC2(CC1)CN(C[C@H](O)[C@H](O)[C@H](O)CO)C2 [Example 69, 2-(4-(3-(1-(5-chloropyrimidin-2-yl)piperidin-4-yl)propoxy)-2-fluorophenyl)-1-(2-((2S,3S,4R)-2,3,4,5-tetrahydroxypentyl)-2,7-diazaspiro[3.5]nonan-7-yl)ethan-1-one]
≥ 130 | ≤ 100 | O=C(Cc1ccc(OCCCC2CCN(c3ncc(Cl)cn3)CC2)cc1F)N1CC2CCC1CN2C[C@H](O)[C@H](O)[C@H](O)CO (stereo partly drawn) [Example 52, 2-(4-(3-(1-(5-chloropyrimidin-2-yl)piperidin-4-yl)propoxy)-2-fluorophenyl)-1-(5-((2S,3S,4R)-2,3,4,5-tetrahydroxypentyl)-2,5-diazabicyclo[2.2.2]octan-2-yl)ethan-1-one]
≥ 130 | ≤ 100 | O=C(Cc1ccc(OCCCC2CCN(c3ncc(Cl)cn3)CC2)cc1F)N1CCC2(CCCN2C[C@H](O)[C@H](O)[C@H](O)CO)C1 (stereo partly drawn) [Example 74, 2-(4-(3-(1-(5-chloropyrimidin-2-yl)piperidin-4-yl)propoxy)-2-fluorophenyl)-1-(1-((2S,3S,4R)-2,3,4,5-tetrahydroxypentyl)-1,7-diazaspiro[4.4]nonan-7-yl)ethan-1-one]
